Data: article PMC10353390, “Biological and Structural Analyses of New Potent Allosteric Inhibitors of HIV-1 Integrase” (Antimicrobial Agents and Chemotherapy, 2023)
Where two headings read alike, the source gives them in different places.

How the values were obtained:
[1] = system: lab-adapted and clinical HIV-1 isolates; experiment: Infection assays in primary T CD4+ lymphocytes; assay type: cell-based; conditions: Human immunodeficiency virus 1, Lymphocyte
[2] = molecular target: T1, HIV-1 IN (Human immunodeficiency virus type 1 group M subtype B, UniProt P12497); experiment: HTRF IN multimerization assay; assay type: biochemical; conditions: mean ± SD
T1 construct: made in house
Description: A key property of INLAIs is the ability to promote HIV-1 IN homo-multimerization ([39][–][42]). […] The maximal signal (plateau) in our IN aggregation assay corresponds to the highest HTRF signal increase under saturating INLAI concentration, relative to baseline level. Thus, MUT916, MUT884, MUT871, and MUT872 increased HIV-1 IN aggregation 3.7 to 4.4-fold, while BDM-2, BI-224436, and S-I-82 did so 5 to 6-fold (Table 1).

[3] = system: NL4-3 HIV-1 with INLAI-selected IN single point mutations; assay type: cell-based
[4] = molecular target: HIV-1 IN-LEDGF/p75 interaction (Human immunodeficiency virus type 1 group M subtype B, UniProt P12497); experiment: biochemical
Description: The INLAIs were tested for the ability to inhibit the HIV-1 IN-LEDGF/p75 interaction in a homogeneous time-resolved fluorescence (HTRF) assay. Our assays used either full-length IN and LEDGF/p75 proteins or their respective minimally sufficient interaction domains: the CCD of HIV-1 IN and the IBD of LEDGF/p75 (Table 1).
HTRF-based CCD-IBD interaction, IN-LEDGF/p75 interaction and IN multimerization assays were performed as described previously ([12]).

[5] = system: HXB2 HIV-1 strain; experiment: Multiple-round infection assay in MT4 cells, HXB2; assay type: cell-based; conditions: Human immunodeficiency virus 1, HXB2; multiple-round infection, MT4 cells; mean ± SD, n > 5; read-out: EC50 HXB2
Outline: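 MT4 cells at 10^6/mL were infected with HIV-1 at MOI 0.001 for 2 h in the presence of compound dilutions. Cell viability, measured by CellTiter-Glo luminescence, served as the read-out of protection in this multiple-round infection.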

[6] = system: NL4-3 HIV-1 strain; experiment: Multiple-round infection assay in MT4 cells, NL4-3; assay type: cell-based; conditions: MT4 cells
[7] = molecular target: CCD of HIV-1 IN and IBD of LEDGF/p75 (Human immunodeficiency virus type 1 group M subtype B, UniProt P12497); experiment: biochemical
[8] = system: VSV-G-pseudotyped NL4-3Δenv-luc; experiment: microbe, parasite or virus in culture; assay type: cell-based, HIV-1
[9] = system: recombinant NL4-3 viruses with polymorphisms at IN positions 124 and 125; experiment: Multiple-round infection of MT4 cells with recombinant NL4-3 viruses polymorphic at IN positions 124 and 125; assay type: cell-based, HIV-1
Outline: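 MT4 cells (10^6/mL) infected with NL4-3 carrying IN 124/125 polymorphisms (15 combinations) at MOI 0.001 for 2 h with compound present. Viability read by CellTiter-Glo luminescence; EC50 expressed as fold change versus wild-type NL4-3 (Thr124/Thr125).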

[10] = Cytotoxicity assay in MT4 cells; assay type: cell-based; conditions: human, MT4 cells (proliferating human T-cell line), CellTiter-Glo
Description: Growth inhibition was monitored in a proliferating human T-cell line (MT4) with different concentrations of compounds, using the CellTiter-Glo luminescent reagent (Promega), as previously described ([12]).

[11] = system: primary HIV-1 isolates with polymorphisms at IN positions 124 and 125; experiment: Multiple-round infection of MT4 cells with primary HIV-1 isolates polymorphic at IN positions 124 and 125; assay type: cell-based; conditions: primary isolate
Outline: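 Exponentially growing MT4 cells at 10^6/mL infected for 2 h at MOI 0.001 in the presence of varying compound concentrations. Cell viability quantified by CellTiter-Glo luminescence.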

[12] = system: HIV-1 strains resistant to INSTIs, NRTIs, NNRTIs or PIs; assay type: cell-based
Outline: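 NL4-3-based recombinant mutants and drug-resistant clinical isolates; exponentially growing MT4 cells (10^6/mL) infected at MOI 0.001 for 2 h with compound at varying concentrations. Protection quantified as cell viability by CellTiter-Glo luminescence.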

[13] = INSTI-resistant, NL4-3 background

Compound: Cc1ccc(C2CC2)c(-c2ccc3c(c2C)CCCO3)c1[C@H](OC1CC1)C(=O)O [MUT884]
- EC50 ([1]; read-out: EC50 33913N (B)): 5.8 ± 3.2 nM
- EC50 ([1]; read-out: EC50 HXB2 (B)): 10 ± 6 nM
- EC50 ([1]; read-out: EC50 KER2008 (A)): 19 ± 3 nM
- EC50 ([1]; read-out: EC50 NL4-3 (B)): 15 ± 4 nM
- EC50 ([1]; read-out: EC50 NP1525 (CRF01_AE)): 12 ± 3 nM
- EC50 ([1]; read-out: EC50 NP1538 (B)): 41 ± 2 nM
- AC50 ([2]; concentration for 50% maximum activation of multimerization): 22 ± 4 nM
- IN multimerization Plateau ([2]; maximum multimerization reached versus baseline): 400 ± 71%
- EC50 fold change compared to wild type NL4-3, A128T [3]: 5
- EC50 fold change compared to wild type NL4-3, H171Q [3]: 1
- EC50 fold change compared to wild type NL4-3, N222K [3]: 3
- EC50 fold change compared to wild type NL4-3, T174I [3]: 12
- EC50 fold change compared to wild type NL4-3, Y99H [3]: 2
- IC50 [4]: 62 ± 9 nM
- EC50 [5]: 6.3 ± 1.1 nM
- EC90 ([6]; Human immunodeficiency virus 1, NL43, multiple-round infection, from dose response curves, read-out: EC90 NL4-3): 23 ± 13 nM
- EC50 ([6]; Human immunodeficiency virus 1, NL43, multiple-round infection, mean ± SD, n > 5, read-out: EC50 NL4-3): 15 ± 5 nM
- Selectivity index CC50/EC50 NL4-3 [6]: 5,200
- IC50 [7]: 82 ± 21 nM
- EC50 ratio (single/multiple-round infection) [8]: 260
- EC50 ([8]; Human immunodeficiency virus 1, NL43, MT4, read-out: EC50 in single-round infection): 3900 ± 800 nM
- Fold change in EC50 relative to parental NL4-3, AA ([9]; recombinant NL4-3, IN 124/125 AA): 0.4
- Fold change in EC50 relative to parental NL4-3, AM ([9]; recombinant NL4-3, IN 124/125 AM): 0.2
- Fold change in EC50 relative to parental NL4-3, AT ([9]; recombinant NL4-3, IN 124/125 AT): 1
- Fold change in EC50 relative to parental NL4-3, AV ([9]; recombinant NL4-3, IN 124/125 AV): 0.5
- Fold change in EC50 relative to parental NL4-3, GA ([9]; recombinant NL4-3, IN 124/125 GA): 1
- Fold change in EC50 relative to parental NL4-3, GT ([9]; recombinant NL4-3, IN 124/125 GT): 2
- Fold change in EC50 relative to parental NL4-3, NA ([9]; recombinant NL4-3, IN 124/125 NA): 2
- Fold change in EC50 relative to parental NL4-3, NT ([9]; recombinant NL4-3, IN 124/125 NT): 1
- Fold change in EC50 relative to parental NL4-3, NV ([9]; recombinant NL4-3, IN 124/125 NV): 1
- Fold change in EC50 relative to parental NL4-3, SA ([9]; recombinant NL4-3, IN 124/125 SA): 1
- Fold change in EC50 relative to parental NL4-3, ST ([9]; recombinant NL4-3, IN 124/125 ST): 1
- Fold change in EC50 relative to parental NL4-3, TA ([9]; recombinant NL4-3, IN 124/125 TA): 1
- Fold change in EC50 relative to parental NL4-3, TM ([9]; recombinant NL4-3, IN 124/125 TM): 0.2
- Fold change in EC50 relative to parental NL4-3, TV ([9]; recombinant NL4-3, IN 124/125 TV): 1
- CC50 [10]: 78000 ± 12000 nM
- Fold change in EC50 relative to parental NL4-3, CAM2BBY (CRF02) ([11]; IN 124/125 AA): 1
- Fold change in EC50 relative to parental NL4-3, E0836M4 (D) ([11]; IN 124/125 AA): 1
- Fold change in EC50 relative to parental NL4-3, KER2008 (A) ([11]; IN 124/125 AA): 0.5
- Fold change in EC50 relative to parental NL4-3, NP1525 (CRF01) ([11]; IN 124/125 AA): 1
- Fold change in EC50 relative to parental NL4-3, NP1695 (CRF02) ([11]; IN 124/125 AA): 2
- Fold change in EC50 relative to parental NL4-3, TZA125 (C) ([11]; IN 124/125 AA): 0.3
- Fold change in EC50 relative to parental NL4-3, KSM4030 (A) ([11]; IN 124/125 GA): 1
- Fold change in EC50 relative to parental NL4-3, vGA (C) ([11]; IN 124/125 GA): 5
- Fold change in EC50 relative to parental NL4-3, 99ET14 (C) ([11]; IN 124/125 NA): 1
- Fold change in EC50 relative to parental NL4-3, NP1538 (B) ([11]; IN 124/125 NA): 3
- Fold change in EC50 relative to parental NL4-3, vNA_1 (B) ([11]; IN 124/125 NA): 3
- Fold change in EC50 relative to parental NL4-3, vNA_2 (CRF02) ([11]; IN 124/125 NA): 4
- Fold change in EC50 relative to parental NL4-3, vNV (B) ([11]; IN 124/125 NV): 2
- Fold change in EC50 relative to parental NL4-3, vSA_1 (B) ([11]; IN 124/125 SA): 2
- Fold change in EC50 relative to parental NL4-3, vSA_2 (CRF02) ([11]; IN 124/125 SA): 2
- Fold change in EC50 relative to parental NL4-3, vTA_1 (B) ([11]; IN 124/125 TA): 1
- Fold change in EC50 relative to parental NL4-3, vTA_2 (CRF02) ([11]; IN 124/125 TA): 2
- Fold change in EC50 relative to NL4-3, E92Q [12, 13]: 1
- Fold change in EC50 relative to NL4-3, G140S [12, 13]: 1
- Fold change in EC50 relative to NL4-3, G140S/Q148H [12, 13]: 1
- Fold change in EC50 relative to NL4-3, N155H [12, 13]: 1
- Fold change in EC50 relative to NL4-3, Q148H [12, 13]: 1
- Fold change in EC50 relative to NL4-3, Y143R [12, 13]: 0.5
- Fold change in EC50 relative to NL4-3, NLAY351717 ([12]; NRTI-resistant clone): 1
- Fold change in EC50 relative to NL4-3, NLAY351753 ([12]; NRTI/NNRTI-resistant clone): 1
- Fold change in EC50 relative to NL4-3, K103N/Y181C ([12]; NRTI/NNRTIs group, NL4-3 background): 1
- Fold change in EC50 relative to NL4-3, ARP-4595 ([12]; PI-resistant virus): 1
- Fold change in EC50 relative to NL4-3, ARP-4596 ([12]; PI-resistant virus): 1
- Fold change in EC50 relative to NL4-3, ARP-11801 ([12]; PI-resistant virus): 3
- Fold change in EC50 relative to NL4-3, ARP-11803 ([12]; PI-resistant virus): 2
- Fold change in EC50 relative to NL4-3, ARP-11807 ([12]; PI-resistant virus): 1
- Fold change in EC50 relative to NL4-3, ARP-11808 ([12]; PI-resistant virus): 2
